From ChEMBL document CHEMBL1146716, “(4-Piperidinylphenyl)aminoethyl amides as a novel class of non-covalent cathepsin K inhibitors” (Bioorg Med Chem Lett, 2004)
Peptide text beside a SMILES is read from it. * marks the point of attachment. Cbz = O=C(OCc1ccccc1)*

Legend:
Cathepsin B = Cathepsin B (Homo sapiens, UniProt P07858); assay: Inhibitory activity against recombinant human cathepsin B
Cathepsin K = target: T1, Cathepsin K (Homo sapiens, UniProt P43235); assay: Inhibitory activity against recombinant human cathepsin K
T1 sequence (P43235 whole entry): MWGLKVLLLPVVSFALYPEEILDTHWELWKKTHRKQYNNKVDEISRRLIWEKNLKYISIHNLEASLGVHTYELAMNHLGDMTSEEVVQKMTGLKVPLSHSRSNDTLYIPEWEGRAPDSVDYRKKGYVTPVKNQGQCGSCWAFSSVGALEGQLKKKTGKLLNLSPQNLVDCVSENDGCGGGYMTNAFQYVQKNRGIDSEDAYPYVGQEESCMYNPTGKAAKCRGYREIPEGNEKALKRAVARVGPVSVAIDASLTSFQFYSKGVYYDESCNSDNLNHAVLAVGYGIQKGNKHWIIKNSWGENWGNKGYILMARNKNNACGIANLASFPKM

Procathepsin L [1] = target: T2, Procathepsin L (Homo sapiens, UniProt P07711); assay: Inhibitory activity against recombinant human cathepsin L
T2 sequence (P07711 whole entry): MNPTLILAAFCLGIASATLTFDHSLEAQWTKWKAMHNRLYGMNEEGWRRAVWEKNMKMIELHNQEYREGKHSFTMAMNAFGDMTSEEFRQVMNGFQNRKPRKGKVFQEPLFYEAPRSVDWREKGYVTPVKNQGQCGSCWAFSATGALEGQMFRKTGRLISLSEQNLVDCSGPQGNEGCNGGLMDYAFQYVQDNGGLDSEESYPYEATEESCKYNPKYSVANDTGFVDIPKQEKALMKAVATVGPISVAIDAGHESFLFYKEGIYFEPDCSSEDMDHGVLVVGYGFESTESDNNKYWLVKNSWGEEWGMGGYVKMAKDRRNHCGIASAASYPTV

Procathepsin L [2] = target: T2, Procathepsin L; assay: Inhibitory activity against recombinant human cathepsin L (1.2 nM)
Homo sapiens = species on record: Homo sapiens; assay: Inhibitory activity against bone resorption in human; format: functional; conditions: Bone element
Mus musculus = species on record: Mus musculus; assay: Inhibitory activity against bone resorption in mouse; format: functional

Ki (Cathepsin B) [nM]	IC50 (Cathepsin K) [nM]	IC50 (Procathepsin L [1]) [nM]	IC50 (Procathepsin L [2]) [nM]	IC50 (Homo sapiens) [nM]	IC50 (Mus musculus) [nM]	Compound
658	5	2				CC(C)C[C@@H](NC(=O)OCc1ccccc1)C(=O)N[C@@H](CCc1ccccc1)CNc1ccc(N2CCCCC2)cc1
12	3	36				CSCC[C@@H](NC(=O)OCc1ccccc1)C(=O)N[C@@H](CCc1ccccc1)CNc1ccc(N2CCCCC2)cc1
> 10000	12	7840				O=C(N[C@@H](CCc1ccccc1)CNc1ccc(N2CCCCC2)cc1)C1CCCN1C(=O)OCc1ccccc1 (stereo not given in full)
		1.3	5			CSCC[C@@H](C=O)NC(=O)[C@H](CC(C)C)NC(=O)OCc1ccccc1 (Cbz-Leu-Met-aldehyde)
3360	48	1				O=C(N[C@H](CC1C=Nc2ccccc21)C(=O)N[C@@H](CCc1ccccc1)CNc1ccc(N2CCCCC2)cc1)OCc1ccccc1 (stereo not given in full)
> 10000	> 10000	> 10000				O=C(CNC(=O)OCc1ccccc1)N[C@@H](CCc1ccccc1)CNc1ccc(N2CCCCC2)cc1
2090	9	4110				C[C@@H](NC(=O)OCc1ccccc1)C(=O)N[C@@H](CCc1ccccc1)CNc1ccc(N2CCCCC2)cc1
	1100	230				CC(C)C[C@H](NC(=O)OCc1ccccc1)C(=O)N[C@H](CNc1ccccc1)Cc1ccccc1
	15	2				CC(C)C[C@H](NC(=O)OCc1ccccc1)C(=O)N[C@H](CNc1ccc(N2CCOCC2)cc1)Cc1ccccc1
		20				CC(C)C[C@H](NC(=O)OCc1ccccc1)C(=O)N[C@H](C=O)Cc1ccccc1 (Cbz-Leu-Phe-aldehyde)
	10	2		1000	1000	CC(C)C[C@H](NC(=O)OCc1ccccc1)C(=O)N[C@H](CNc1ccc(N2CCCCC2)cc1)Cc1ccccc1
106	8	1				O=C(N[C@H](Cc1ccc(O)cc1)C(=O)N[C@@H](CCc1ccccc1)CNc1ccc(N2CCCCC2)cc1)OCc1ccccc1
167	3	1				O=C(N[C@H](Cc1ccccc1)C(=O)N[C@@H](CCc1ccccc1)CNc1ccc(N2CCCCC2)cc1)OCc1ccccc1
9660	14	9				O=C(N[C@H](CCc1ccccc1)C(=O)N[C@@H](CCc1ccccc1)CNc1ccc(N2CCCCC2)cc1)OCc1ccccc1
7	4	1		560	330	CC(C)[C@@H](NC(=O)OCc1ccccc1)C(=O)N[C@@H](CCc1ccccc1)CNc1ccc(N2CCCCC2)cc1
	706	32				CC(C)C[C@H](NC(=O)OCc1ccccc1)C(=O)N[C@H](CNc1ccc(-c2ccccc2)cc1)Cc1ccccc1
